Test: xn = mol fraction of the nth substance listed

C=COC(C)=O + CCc1ccccc1
viscosity [mPa·s], 101 kPa
Conditions | x1 = 0.1246 | x1 = 0.2478 | x1 = 0.3516 | x1 = 0.4658 | x1 = 0.576 | x1 = 0.6587 | x1 = 0.7601 | x1 = 0.8593 | x1 = 0.9467
303.15 K | 0.556 | 0.523 | 0.499 | 0.475 | 0.453 | 0.439 | 0.422 | 0.408 | 0.397
313.15 K | 0.506 | 0.473 | 0.45 | 0.426 | 0.407 | 0.394 | 0.379 | 0.364 | 0.352

CCCCOC(C)=O + CN1CCCC1=O
viscosity [mPa·s], 101 kPa
Conditions | x2 = 0.1327 | x2 = 0.256 | x2 = 0.3711 | x2 = 0.4785 | x2 = 0.5792 | x2 = 0.6737 | x2 = 0.7626 | x2 = 0.8463 | x2 = 0.9253
303.15 K | 0.801 | 0.941 | 1.061 | 1.165 | 1.258 | 1.339 | 1.405 | 1.463 | 1.512
308.15 K | 0.737 | 0.861 | 0.968 | 1.059 | 1.143 | 1.213 | 1.273 | 1.325 | 1.37
313.15 K | 0.69 | 0.805 | 0.905 | 0.991 | 1.065 | 1.13 | 1.187 | 1.236 | 1.28
318.15 K | 0.642 | 0.745 | 0.834 | 0.911 | 0.978 | 1.037 | 1.088 | 1.131 | 1.173

Oc1ccccc1Cl + CN(C)C=O
Conditions | viscosity [mPa·s]
303.15 K, 101 kPa, x1 = 0.3286 | 3.443

CC(C)c1ccccc1 + CN(C)c1ccccc1
viscosity [mPa·s], 101 kPa
Conditions | x1 = 0.2 | x1 = 0.4 | x1 = 0.6 | x1 = 0.8
293.15 K | 1.228 | 1.085 | 0.963 | 0.865
313.15 K | 0.915 | 0.817 | 0.733 | 0.666

Oc1ccccc1Cl + CN(C)c1ccccc1
101 kPa
Conditions | viscosity [mPa·s]
293.15 K, x1 = 0.1395 | 1.859
293.15 K, x1 = 0.2654 | 2.43
293.15 K, x1 = 0.3923 | 3.05
293.15 K, x1 = 0.5102 | 3.7
293.15 K, x1 = 0.5898 | 4.14
293.15 K, x1 = 0.6926 | 4.69
293.15 K, x1 = 0.743 | 4.89
293.15 K, x1 = 0.7994 | 5
293.15 K, x1 = 0.8299 | 4.98
293.15 K, x1 = 0.896 | 4.74
298 K, x1 = 0.1002 | 1.53
298 K, x1 = 0.199 | 1.698
298 K, x1 = 0.3025 | 2.194
298 K, x1 = 0.4016 | 2.558
298 K, x1 = 0.502 | 3.036
298 K, x1 = 0.6009 | 3.48
298 K, x1 = 0.6991 | 3.758
298 K, x1 = 0.8 | 3.852
298 K, x1 = 0.9019 | 3.691
303 K, x1 = 0.1002 | 1.384
303 K, x1 = 0.199 | 1.522
303 K, x1 = 0.3025 | 1.937
303 K, x1 = 0.4016 | 2.2
303 K, x1 = 0.502 | 2.564
303 K, x1 = 0.6009 | 2.904
303 K, x1 = 0.6991 | 3.121
303 K, x1 = 0.8 | 3.212
303 K, x1 = 0.9019 | 3.106
303.15 K, x1 = 0.1395 | 1.473
303.15 K, x1 = 0.2654 | 1.89
303.15 K, x1 = 0.3923 | 2.35
303.15 K, x1 = 0.5102 | 2.79
303.15 K, x1 = 0.5898 | 3.09
303.15 K, x1 = 0.6926 | 3.41
303.15 K, x1 = 0.743 | 3.505
303.15 K, x1 = 0.7994 | 3.545
303.15 K, x1 = 0.8299 | 3.545
303.15 K, x1 = 0.896 | 3.41
308 K, x1 = 0.1002 | 1.254
308 K, x1 = 0.199 | 1.366
308 K, x1 = 0.3025 | 1.702
308 K, x1 = 0.4016 | 1.951
308 K, x1 = 0.502 | 2.221
308 K, x1 = 0.6009 | 2.476
308 K, x1 = 0.6991 | 2.681
308 K, x1 = 0.8 | 2.757
308 K, x1 = 0.9019 | 2.662
313 K, x1 = 0.1002 | 1.171
313 K, x1 = 0.199 | 1.234
313 K, x1 = 0.3025 | 1.527
313 K, x1 = 0.4016 | 1.736
313 K, x1 = 0.502 | 1.965
313 K, x1 = 0.6009 | 2.152
313 K, x1 = 0.6991 | 2.335
313 K, x1 = 0.8 | 2.397
313 K, x1 = 0.9019 | 2.36
313.15 K, x1 = 0.1395 | 1.243
313.15 K, x1 = 0.2654 | 1.41
313.15 K, x1 = 0.3923 | 1.66
313.15 K, x1 = 0.5102 | 1.915
313.15 K, x1 = 0.5898 | 2.085
313.15 K, x1 = 0.6926 | 2.305
313.15 K, x1 = 0.743 | 2.4
313.15 K, x1 = 0.7994 | 2.47
313.15 K, x1 = 0.8299 | 2.475
313.15 K, x1 = 0.896 | 2.45
318 K, x1 = 0.1002 | 1.077
318 K, x1 = 0.199 | 1.122
318 K, x1 = 0.3025 | 1.382
318 K, x1 = 0.4016 | 1.56
318 K, x1 = 0.502 | 1.728
318 K, x1 = 0.6009 | 1.899
318 K, x1 = 0.6991 | 2.05
318 K, x1 = 0.8 | 2.173
318 K, x1 = 0.9019 | 2.028

CCCN + CNC(C)=O
308.15 K, 101 kPa
Conditions | viscosity [mPa·s]
x2 = 0.0288 | 0.3203
x2 = 0.161 | 0.4788
x2 = 0.322 | 0.6904
x2 = 0.4077 | 0.8508
x2 = 0.5208 | 1.16
x2 = 0.6414 | 1.544
x2 = 0.7368 | 1.882
x2 = 0.8217 | 2.222
x2 = 0.9755 | 3.191

Oc1ccccc1Cl + CNc1ccccc1
viscosity [mPa·s], 101 kPa
Conditions | x1 = 0.1013 | x1 = 0.2024 | x1 = 0.3005 | x1 = 0.4032 | x1 = 0.5007 | x1 = 0.6027 | x1 = 0.7 | x1 = 0.7936 | x1 = 0.9042
298 K | 2.395 | 2.887 | 3.546 | 4.142 | 4.746 | 4.883 | 4.922 | 4.587 | 3.898
303 K | 2.112 | 2.493 | 2.984 | 3.445 | 3.801 | 3.963 | 3.966 | 3.715 | 3.352
308 K | 1.84 | 2.126 | 2.526 | 2.863 | 3.129 | 3.277 | 3.305 | 3.117 | 2.77
313 K | 1.622 | 1.826 | 2.115 | 2.42 | 2.678 | 2.75 | 2.793 | 2.704 | 2.506
318 K | 1.443 | 1.598 | 1.883 | 2.075 | 2.302 | 2.34 | 2.42 | 2.342 | 2.198

CCC(CC)CO + CO
298.15 K, 101.33 kPa
Conditions | viscosity [mPa·s]
x2 = 0.1241 | 4.806
x2 = 0.2054 | 4.143
x2 = 0.3133 | 3.38
x2 = 0.4534 | 2.454
x2 = 0.5051 | 2.214
x2 = 0.6004 | 1.744
x2 = 0.7073 | 1.33
x2 = 0.8019 | 1.041
x2 = 0.9015 | 0.7598

CCCCOC(C)=O + CO
303.15 K, 101.33 kPa
Conditions | viscosity [mPa·s]
x1 = 0.0963 | 0.528
x1 = 0.1331 | 0.533
x1 = 0.1759 | 0.539
x1 = 0.2825 | 0.552
x1 = 0.3931 | 0.566
x1 = 0.4804 | 0.577
x1 = 0.5458 | 0.585
x1 = 0.6116 | 0.592
x1 = 0.6478 | 0.596
x1 = 0.7391 | 0.606
x1 = 0.8007 | 0.612
x1 = 0.8409 | 0.616
x1 = 0.8858 | 0.621
x1 = 0.924 | 0.624

CCCN + CO
298.15 K, 100 kPa
Conditions | viscosity [mPa·s]
x2 = 0.0987 | 0.4013
x2 = 0.1995 | 0.4374
x2 = 0.2868 | 0.4756
x2 = 0.397 | 0.5323
x2 = 0.4985 | 0.5872
x2 = 0.5475 | 0.6104
x2 = 0.6249 | 0.6414
x2 = 0.6977 | 0.658
x2 = 0.8 | 0.652
x2 = 0.8982 | 0.6144
x2 = 0.9499 | 0.5827

— the CheMixHub viscosity set
